From PMC6694100, “The complex of ferric-enterobactin with its transporter from Pseudomonas aeruginosa suggests a two-site model” (Nature Communications, 2019)
Several values for one entry are separate records, joined by “and”; a condition that tells them apart may be missing. Identical values can stand only once. Entries after “also recorded” stand apart in the source; their conditions may differ. Like-named read-outs stand apart in the source and are kept apart here.

Legend:
PfeA wild-type = target: T1, PfeA wild-type (Pseudomonas aeruginosa, UniProt Q05098); test: isothermal titration calorimetry, PfeA wild-type; type: binding; conditions: ITC reverse titration (PfeA into Fe^3+-enterobactin), estimate
T1 construct: His7 tag with TEV protease site (N, cleaved yes); made in house; host or cells: E. coli C43 (DE3)
T1 sequence (Q05098 26-746): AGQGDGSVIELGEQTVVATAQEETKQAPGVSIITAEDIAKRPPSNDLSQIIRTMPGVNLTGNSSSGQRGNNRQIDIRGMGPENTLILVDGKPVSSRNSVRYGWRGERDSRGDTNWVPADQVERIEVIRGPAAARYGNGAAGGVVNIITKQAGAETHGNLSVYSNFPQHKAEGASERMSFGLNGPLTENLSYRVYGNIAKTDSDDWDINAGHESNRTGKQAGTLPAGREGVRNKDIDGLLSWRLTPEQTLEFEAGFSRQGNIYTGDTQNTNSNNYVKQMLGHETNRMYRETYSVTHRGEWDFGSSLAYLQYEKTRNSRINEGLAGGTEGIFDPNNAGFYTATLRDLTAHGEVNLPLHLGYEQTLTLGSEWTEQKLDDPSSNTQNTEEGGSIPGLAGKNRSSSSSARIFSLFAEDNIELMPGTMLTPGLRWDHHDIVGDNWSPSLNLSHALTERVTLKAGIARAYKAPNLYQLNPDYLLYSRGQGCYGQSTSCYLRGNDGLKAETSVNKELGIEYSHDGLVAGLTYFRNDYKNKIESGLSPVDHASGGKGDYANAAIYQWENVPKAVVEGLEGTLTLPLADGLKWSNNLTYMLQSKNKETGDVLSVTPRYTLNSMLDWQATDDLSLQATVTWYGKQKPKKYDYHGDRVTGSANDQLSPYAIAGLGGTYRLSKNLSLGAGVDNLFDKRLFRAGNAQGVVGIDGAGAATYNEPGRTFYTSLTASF
Protocol: (§1) The sites have different affinities for the ligand, one with high affinity and highly favourable enthalpy and the second with lower affinity and unfavourable enthalpy. Although the biphasic nature of the isotherm was reproducible, the numerical values varied. For K1, the binding constant was 20 to 100 nM; for K2 […]. […] The weaker binding at the […] site is consistent with the higher B-factor of the Fe^3+-enterobactin molecule observed in the complex crystal structures.
(§2) Affinities of PfeA wild-type and mutants for Fe^3+-enterobactin were measured by isothermal titration calorimetry using a VP-ITC instrument (GE Healthcare) at 25 °C. Titrations were performed using 57 × 5 μl injections of Fe^3+-enterobactin (70–55 μM) into 10 μM protein. The heats of dilution measured from injection of the ligands into the buffer were subtracted, and titration curves were fitted using AFFINImeter software with a two-site binding model. Concentrations of Fe^3+-enterobactin solutions were verified with UV/vis spectrophotometry using a published molar extinction coefficient of ε495 = 5600 M^−1 cm^−1. […] Reverse titration has been also performed (PfeA into Fe^3+-enterobactin), but data suffer from high heats of dilution in the beginning of the blank titration of PfeA into the buffer giving estimates of K1 = 95 nM and K2 = 4.5 μM for the wild-type.

PfeA G324V mutant = target: T2, PfeA G324V mutant (Pseudomonas aeruginosa, UniProt Q05098, G349V); test: isothermal titration calorimetry, PfeA G324V; type: binding
T2 construct: His7 tag with TEV protease site (N, cleaved yes); made in house; host or cells: E. coli C43 (DE3)
T2 sequence (Q05098 26-746 G349V): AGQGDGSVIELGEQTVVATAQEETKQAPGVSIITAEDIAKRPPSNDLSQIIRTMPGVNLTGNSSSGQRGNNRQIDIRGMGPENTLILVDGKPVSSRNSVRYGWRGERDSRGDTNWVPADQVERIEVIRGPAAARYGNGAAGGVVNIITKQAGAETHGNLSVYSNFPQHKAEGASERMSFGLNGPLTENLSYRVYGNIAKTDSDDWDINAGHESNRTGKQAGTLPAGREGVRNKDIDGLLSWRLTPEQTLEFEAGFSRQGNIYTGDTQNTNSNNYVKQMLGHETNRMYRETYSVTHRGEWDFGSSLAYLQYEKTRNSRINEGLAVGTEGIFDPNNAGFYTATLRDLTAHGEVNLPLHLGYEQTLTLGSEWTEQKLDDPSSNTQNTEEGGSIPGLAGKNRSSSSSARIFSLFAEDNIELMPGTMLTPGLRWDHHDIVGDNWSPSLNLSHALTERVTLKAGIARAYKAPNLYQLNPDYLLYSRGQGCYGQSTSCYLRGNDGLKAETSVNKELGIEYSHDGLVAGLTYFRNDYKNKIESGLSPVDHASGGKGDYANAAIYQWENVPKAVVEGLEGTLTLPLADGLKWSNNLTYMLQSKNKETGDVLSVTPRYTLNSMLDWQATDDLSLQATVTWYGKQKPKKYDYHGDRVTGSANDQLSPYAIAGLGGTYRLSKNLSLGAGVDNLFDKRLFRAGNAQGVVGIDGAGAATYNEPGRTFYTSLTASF
Protocol: as §1, §2

[1] = target: T3, PfeA R480A-Q482A double mutant (Pseudomonas aeruginosa, UniProt Q05098, Q507A/R505A); test: isothermal titration calorimetry, PfeA R480A-Q482A; type: binding
T3 construct: His7 tag with TEV protease site (N, cleaved yes); made in house; host or cells: E. coli C43 (DE3)
T3 sequence (Q05098 26-746 R505A/Q507A): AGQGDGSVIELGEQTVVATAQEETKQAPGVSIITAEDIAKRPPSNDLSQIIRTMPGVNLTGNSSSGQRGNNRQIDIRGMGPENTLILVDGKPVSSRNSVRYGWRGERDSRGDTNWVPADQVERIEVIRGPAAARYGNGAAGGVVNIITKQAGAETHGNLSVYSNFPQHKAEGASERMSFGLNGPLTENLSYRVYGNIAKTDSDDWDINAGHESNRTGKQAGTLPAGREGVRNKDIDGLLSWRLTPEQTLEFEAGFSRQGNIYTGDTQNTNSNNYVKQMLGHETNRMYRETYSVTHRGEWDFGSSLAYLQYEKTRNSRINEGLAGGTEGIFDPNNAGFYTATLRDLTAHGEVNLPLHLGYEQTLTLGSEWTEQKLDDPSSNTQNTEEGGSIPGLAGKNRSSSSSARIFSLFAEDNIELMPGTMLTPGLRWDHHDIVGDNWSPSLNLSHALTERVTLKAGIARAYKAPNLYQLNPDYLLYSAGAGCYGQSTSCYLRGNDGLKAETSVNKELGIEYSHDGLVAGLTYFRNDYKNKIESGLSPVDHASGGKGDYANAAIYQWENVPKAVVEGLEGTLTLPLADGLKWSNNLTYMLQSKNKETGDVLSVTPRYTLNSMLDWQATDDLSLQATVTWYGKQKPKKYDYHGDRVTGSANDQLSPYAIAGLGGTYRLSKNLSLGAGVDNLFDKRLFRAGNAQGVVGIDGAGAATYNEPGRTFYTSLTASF
Protocol: as §1, §2

PfeA R480A mutant = target: T4, PfeA R480A mutant (Pseudomonas aeruginosa, UniProt Q05098, R505A); test: isothermal titration calorimetry, PfeA R480A; type: binding
T4 construct: His7 tag with TEV protease site (N, cleaved yes); made in house; host or cells: E. coli C43 (DE3)
T4 sequence (Q05098 26-746 R505A): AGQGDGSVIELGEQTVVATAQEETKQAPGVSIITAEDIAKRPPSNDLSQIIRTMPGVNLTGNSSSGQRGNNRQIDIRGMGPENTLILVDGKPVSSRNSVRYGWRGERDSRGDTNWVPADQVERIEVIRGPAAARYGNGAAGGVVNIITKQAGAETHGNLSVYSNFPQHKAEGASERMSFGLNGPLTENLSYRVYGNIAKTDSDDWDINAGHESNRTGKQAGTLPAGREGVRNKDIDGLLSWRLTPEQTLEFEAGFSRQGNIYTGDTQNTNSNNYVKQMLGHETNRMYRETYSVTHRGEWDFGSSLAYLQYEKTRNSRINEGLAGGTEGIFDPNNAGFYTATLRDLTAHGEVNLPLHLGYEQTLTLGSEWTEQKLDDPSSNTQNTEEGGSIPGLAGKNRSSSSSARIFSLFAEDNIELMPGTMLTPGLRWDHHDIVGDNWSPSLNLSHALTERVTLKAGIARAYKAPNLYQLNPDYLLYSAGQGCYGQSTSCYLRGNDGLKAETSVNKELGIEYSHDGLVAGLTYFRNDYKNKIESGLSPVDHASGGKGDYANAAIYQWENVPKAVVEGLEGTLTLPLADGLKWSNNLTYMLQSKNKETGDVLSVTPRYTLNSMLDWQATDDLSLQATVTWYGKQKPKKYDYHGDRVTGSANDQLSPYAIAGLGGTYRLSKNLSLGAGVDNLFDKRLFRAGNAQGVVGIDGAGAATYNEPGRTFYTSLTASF
Protocol: as §1, §2

PfeA = target: T5, PfeA (Pseudomonas aeruginosa, UniProt Q05098); test: coelution on S200 size-exclusion column, PfeA wild-type; type: binding
T5 construct: His7 tag with TEV protease site (N, cleaved yes); made in house; host or cells: E. coli C43 (DE3)
T5 sequence (Q05098 26-746): as the sequence (Q05098 26-746) above
Protocol: (§3) Proteins were incubated with the Fe^3+-siderophore before being loaded on a S200 size-exclusion column.
Crystals of PfeA appeared at 20 °C after few days by mixing 2 μl of protein solution (10 mg.ml^−1) with 1 μl of reservoir solution containing 11% polyethylene glycol 8000, 0.05 M ADA pH 6.5 and 0.1 M magnesium acetate. Crystals were frozen with the same solution containing 25% ethylene glycol. Enterobactin structure complexes were obtained by soaking apo crystals for few hours with mother liquor containing 5 mM Fe^3+-enterobactin before cryoprotection. For the others complexes, crystals were cross-linked by diffusion of 25% glutaraldehyde prior the soaking. Co-crystallisation attempts have been performed by incubating the protein for 1 h at room temperature with the ligand before been loaded on a S200 16/60 column and concentrated for setting up the crystallisation plates. No crystals have been obtained by co-crystallisation. Crystallisation conditions of the mutants were the same as for the wild-type.

[2] = target: T3, PfeA R480A-Q482A double mutant; test: coelution on S200 size-exclusion column, PfeA R480A-Q482A; type: binding
Protocol: as §3

wild-type PAO1 strain = test: 55Fe-enterobactin binding and uptake assay, PAO1; type: cell-based, Pseudomonas aeruginosa; conditions: replicates, Figure 6b-c, listed as 55Fe-enterobactin
Protocol: (§4) Fig. 6 Effects of PfeA mutation in vivo. a Analysis of changes in the transcription of pfeA gene. PAO1 strain, its corresponding deletion mutant ∆pfeA and deletion mutants carrying the expression plasmid of PfeA wild-type (∆pfeA(pMMBpfeA) or the R480A-Q482A mutant (∆pfeA(pMMBpfeAR480AQ482A)) were grown in CAA medium supplemented with 10 µM enterobactin. The data were normalised relative to the reference gene uvrD, and are representative of three independent experiments performed in triplicate (n = 3). The results are given as a ratio between the values obtained for ∆pfeA, ∆pfeA(pMMBpfeA) and ∆pfeA(pMMBpfeAR480AQ482A) over those obtained for the PAO1 strain. b ^55Fe-enterobactin binding at the bacterial surface. Cells were grown as in panel a, and were incubated for 15 min with 200 µM CCCP before initiation of transport assays by the addition of 500 nM ^55Fe-enterobactin. After 30 min incubation, the radioactivity accumulated in the bacteria was counted. The results are expressed as pmol of ^55Fe-enterobactin bound per ml of cells at an OD600 of 1. The experiments have been repeated three times. c ^55Fe-enterobactin binding and uptake. Cells were grown as in panel a, and were incubated with or without 200 µM CCCP before initiation of transport assays by the addition of 500 nM ^55Fe-enterobactin. After 30 min incubations, the radioactivity accumulated in the bacteria was counted. The results are expressed as pmol of ^55Fe-enterobactin bound and transported per ml of cells at an OD600 of 1. The experiments have been repeated three times
The complex was prepared at ^55Fe concentrations of 50 μM, with a siderophore:iron (mol:mol) ratio of 20:1. P. aeruginosa strains were first grown overnight at 30 °C in LB broth, and were then washed, resuspended and cultured overnight at 30 °C in iron-deficient CAA medium (casamino acid medium, composition: 5 g.l^−1 low-iron CAA (Difco), 1.46 g.l^−1 K2HPO4 3H2O, 0.25 g.l^−1 MgSO4 7H2O) and in the presence of 10 µM enterobactin to induce the expression of PfeA. CAA is a highly iron-restricted medium with iron concentrations of 20 nM[59]. Afterwards bacteria were washed with 50 mM Tris-HCl pH 8.0, and diluted to an OD600 of 1. Cells solutions were divided in two, one batch being treated with 200 μM CCCP. […] After 30 min of incubations, cells were centrifuged, and the radioactivity associated to the bacteria was monitored in the cell pellets. For the cells treated with CCCP, the radioactivity in the cell pellets corresponds to the binding of ^55Fe-enterobactin to P. aeruginosa cell surface, since no uptake occurs. In the absence of CCCP, the radioactivity associated to the cells corresponds to ^55Fe-enterobactin binding to the cell surface and the uptake into the bacteria.

[3] = tested on: ∆pfeA(pMMBpfeAR480AQ482A) cells (double-mutant PfeA); test: 55Fe-enterobactin binding and uptake assay, ∆pfeA(pMMBpfeAR480AQ482A); type: cell-based, Pseudomonas aeruginosa; conditions: for 55Fe count, Comptage / 55Fe-enterobactin bound/taken up: replicates, Figure 6b-c, listed as 55Fe-enterobactin
Protocol: as §4
The complex was prepared at ^55Fe concentrations of 50 μM, with a siderophore:iron (mol:mol) ratio of 20:1. P. aeruginosa strains were first grown overnight at 30 °C in LB broth, and were then washed, resuspended and cultured overnight at 30 °C in iron-deficient CAA medium (casamino acid medium, composition: 5 g.l^−1 low-iron CAA (Difco), 1.46 g.l^−1 K2HPO4 3H2O, 0.25 g.l^−1 MgSO4 7H2O) and in the presence of 10 µM enterobactin to induce the expression of PfeA. CAA is a highly iron-restricted medium with iron concentrations of 20 nM[59]. Afterwards bacteria were washed with 50 mM Tris-HCl pH 8.0, and diluted to an OD600 of 1. Cells solutions were divided in two, one batch being treated with 200 μM CCCP. This compound collapses the proton-motive force across the bacterial cell membranes, inhibiting TonB-dependent iron uptake. Binding and transport assays were initiated by adding 500 nM ^55Fe-enterobactin to the bacterial solutions treated or not with CCCP. After 30 min of incubations, cells were centrifuged, and the radioactivity associated to the bacteria was monitored in the cell pellets. For the cells treated with CCCP, the radioactivity in the cell pellets corresponds to the binding of ^55Fe-enterobactin to P. aeruginosa cell surface, since no uptake occurs. In the absence of CCCP, the radioactivity associated to the cells corresponds to ^55Fe-enterobactin binding to the cell surface and the uptake into the bacteria.

[4] = ∆pfeA (pMMBpfeAR480AQ482A) + CCCP
[5] = ∆pfeA (pMMBpfeAR480AQ482A), no CCCP

SMILES: O=C(N[C@H]1COC(=O)[C@@H](NC(=O)c2cccc([O-])c2[O-])COC(=O)[C@@H](NC(=O)c2cccc([O-])c2[O-])COC1=O)c1cccc([O-])c1[O-].[Fe+3] [Fe^3+-enterobactin]
- Kd (PfeA wild-type; read-out: K1, reverse titration): 95 nM
- Kd (PfeA wild-type; read-out: K2, reverse titration): 4500 nM
- binding by ITC (PfeA G324V mutant): no binding was detected; also recorded: did not show any detectable binding
- binding by ITC [1]: no binding was detected; also recorded: did not show any detectable binding
- binding by ITC (PfeA R480A mutant): typical low affinity-binding curve profile; also recorded: weakened (but detectable) binding
- coelution with protein on size-exclusion column (PfeA): coelute with PfeA
- coelution with protein on size-exclusion column [2]: does not coelute
- 55Fe count, Comptage (wild-type PAO1 strain; PAO1 + CCCP): 1670 dpm and 1638 dpm and 1498 dpm
- 55Fe-enterobactin bound/taken up (wild-type PAO1 strain; PAO1 + CCCP): 21.426 pmol/ml/DO600 and 21.0154 pmol/ml/DO600 and 19.2192 pmol/ml/DO600
- 55Fe count, Comptage (wild-type PAO1 strain; PAO1, no CCCP): 14331 dpm and 14149 dpm and 16177 dpm
- 55Fe-enterobactin bound/taken up (wild-type PAO1 strain; PAO1, no CCCP): 183.866 pmol/ml/DO600 and 181.531 pmol/ml/DO600 and 207.55 pmol/ml/DO600
- ^55Fe-enterobactin binding and uptake ([3]; cells not treated with CCCP, 500 nM ^55Fe-enterobactin, 30 min): inactive
- 55Fe count, Comptage [3, 4]: 1611 dpm and 1344 dpm and 1594 dpm
- 55Fe-enterobactin bound/taken up [3, 4]: 20.669 pmol/ml/DO600 and 17.2434 pmol/ml/DO600 and 20.4509 pmol/ml/DO600
- 55Fe count, Comptage [3, 5]: 2941 dpm and 2752 dpm and 2956 dpm
- 55Fe-enterobactin bound/taken up [3, 5]: 37.7328 pmol/ml/DO600 and 35.3079 pmol/ml/DO600 and 37.9252 pmol/ml/DO600
